According to patent publication US10112940B2, “Histone demethylase inhibitors” (Celgene Quanticel Research, Inc., priority 2014, dated 2018):

Legend:
[1] = system: KYSE-150 esophageal carcinoma cell line; experiment: In vitro cell-based assay: BrdU incorporation cell proliferation ELISA; set-up: species or system human; conditions: Homo sapiens, KYSE-150 cells, 168 hours compound incubation, read-out: Cellular IC50
Experimental: Cell lines tested include the JMJD2C gene amplified cell line KYSE-150. This is a quantitative ELISA assay measuring DNA incorporation of BrdU during S-phase as a direct readout of cellular proliferation.
Assay Principle: This is a colorimetric immunoassay for the quantification of cell proliferation. Cells treated for 168 hours with test compounds are assayed for their ability to go through S-phase as a measure of their proliferative potential.
Assay Method: The human KYSE-150 (SMAD4 mut, TP53 mut) esophageal carcinoma cell line was seeded at 2,000 cells/well on a 96-well tissue culture treated plate. After an overnight incubation, cells were treated with compound in an 11-point dilution series with final concentrations ranging from 100 μM to 2 nM. Cells were then incubated in the presence of compound for 168 hours. After compound incubation the cells were assayed using a BrdU Cell Proliferation ELISA (Roche). The cells were first incubated with BrdU labeling reagent for 2 hours. After 2 hours, the BrdU incorporated cells were fixed and denatured, probed with an anti-BrdU-Peroxidase antibody for 1.5 hours and washed. Finally, a tetramethylbenzidine peroxidase substrate was added to each well for 15 minutes followed by a H2SO4 stop solution. The plate was read at 450 nm, and the raw optical density data was transferred into XLFit (IDBS) for IC50 calculation using the formula: fit=(D+((Vmax*(x^n))/((x^n)+(Km^n))))
Table 4 provides the cellular IC50 values of various compounds disclosed herein.

[2] = target: JMJD2C (Homo sapiens (Human), UniProt Q9H3R0); experiment: JMJD2C in vitro enzyme inhibition assay (TR-FRET); format: biochemical; conditions: 0.3 nM JMJD2C, 300 nM H3K9me3-biotin peptide, 2 μM alpha-ketoglutaric acid, 30 minutes
Chain of JMJD2C (Q9H3R0 2-372): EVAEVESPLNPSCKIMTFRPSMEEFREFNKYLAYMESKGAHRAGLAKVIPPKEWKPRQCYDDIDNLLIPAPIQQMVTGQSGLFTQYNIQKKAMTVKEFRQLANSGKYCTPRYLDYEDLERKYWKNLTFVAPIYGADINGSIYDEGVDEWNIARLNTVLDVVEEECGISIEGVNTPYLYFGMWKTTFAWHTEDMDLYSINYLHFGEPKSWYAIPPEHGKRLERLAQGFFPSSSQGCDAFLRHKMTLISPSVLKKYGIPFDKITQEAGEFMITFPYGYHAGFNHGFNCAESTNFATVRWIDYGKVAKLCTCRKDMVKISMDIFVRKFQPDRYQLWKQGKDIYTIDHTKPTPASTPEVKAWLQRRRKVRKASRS
Experimental: This assay determines the ability of a test compound to inhibit JMJD2C demethylase activity. Baculovirus expressed JMJD2C (GenBank Accession #BC143571, AA 2-372) was purchased from BPS Bioscience (Cat#50105).
The ability of test compounds to inhibit the activity of JMJD2C was determined in 384-well plate format under the following reaction conditions: 0.3 nM JMJD2C, 300 nM H3K9me3-biotin labeled peptide (Anaspec cat #64360), 2 μM alpha-ketoglutaric acid in assay buffer of 50 mM HEPES, pH7.3, 0.005% Brij35, 0.5 mM TCEP, 0.2 mg/ml BSA, 50 μM sodium L-ascorbate, and 2 μM ammonium iron(II) sulfate. Reaction product was determined quantitatively by TR-FRET after the addition of detection reagent Phycolink Streptavidin-allophycocyanin (Prozyme) and Europium-anti-di-methylated histone H3 lysine 9 (H3K9me2) antibody (PerkinElmer) in the presence of 5 mM EDTA in LANCE detection buffer (PerkinElmer) at a final concentration of 50 nM and 1 nM, respectively.
The assay reaction was initiated by the following: 2 μl of the mixture of 900 nM H3K9me3-biotin labeled peptide and 6 μM alpha-ketoglutaric acid with 2 μl of 11-point serial diluted inhibitor in 3% DMSO were added to each well of the plate, followed by the addition of 2 μl of 0.9 nM JMJD2C to initiate the reaction. The reaction mixture was incubated at room temperature for 30 minutes, and terminated by the addition of 6 μl of 5 mM EDTA in LANCE detection buffer containing 100 nM Phycolink Streptavidin-allophycocyanin and 2 nM Europium-anti-H3K9me2 antibody. Plates were read by EnVisionMultilabel Reader in TR-FRET mode (excitation at 320 nm, emission at 615 nm and 665 nm) after 1 hour incubation at room temperature. A ratio was calculated (665/615) for each well and fitted to determine inhibition constant (IC50).
The ability of the compounds disclosed herein to inhibit demethylase activity was quantified and the respective IC50 value was determined. Table 3 provides the IC50 values of various compounds disclosed herein.

Row | SMILES | IC50 [1] | IC50 [2]
1 | CN(c1ccc(Oc2nc(O)c3ccncc3n2)cc1)c1ccc(C2(C(F)(F)F)CC2)cc1 [Example 107, 2-[4-[N-methyl-4-[1-(trifluoromethyl)cyclopropyl]anilino]phenoxy]pyrido[3,4-d]pyrimidin-4-ol] | ≤ 100 nM | 1000 to 10000 nM
2 | CN1CCN(c2cccc(N(C)c3ccc(Oc4nc(O)c5ccncc5n4)cc3)c2)CC1=O [Example 45, 4-[3-[4-(4-hydroxypyrido[3,4-d]pyrimidin-2-yl)oxy-N-methylanilino]phenyl]-1-methylpiperazin-2-one] | > 10000 nM | 100 to 1000 nM
3 | CN(c1ccc(CC(F)(F)F)cc1)c1ccc(Oc2nc(O)c3ccncc3n2)cc1 [Example 106, 2-[4-[N-methyl-4-(2,2,2-trifluoroethyl)anilino]phenoxy]pyrido[3,4-d]pyrimidin-4-ol] | ≤ 100 nM | 1000 to 10000 nM
4 | CN(c1ccc(Oc2nc(O)c3ccncc3n2)cc1)c1ccc(C2CC2)cc1 [Example 42, 2-{4-[(4-cyclopropyl-phenyl)-methyl-amino]-phenoxy}-pyrido[3,4-d]pyrimidin-4-ol] | 100 to 1000 nM | 100 to 1000 nM
5 | Cc1cc(N2CCN(C)CC2)cc(N(C)c2ccc(Oc3nc(O)c4ccncc4n3)cc2)c1 [Example 90, 2-[4-[N,3-dimethyl-5-(4-methylpiperazin-1-yl)anilino]phenoxy]pyrido[3,4-d]pyrimidin-4-ol] | > 10000 nM | ≤ 100 nM
6 | CC(C)c1ccc(N(c2ccc(Oc3nc(O)c4ccncc4n3)cc2)C2CCOCC2)cc1 [Example 118, 2-(4-((4-isopropylphenyl)(tetrahydro-2H-pyran-4-yl)amino)phenoxy)pyrido[3,4-d]pyrimidin-4-ol] | – | 100 to 1000 nM
7 | COCCNCC(C)c1ccc(N(C)c2ccc(Oc3nc(O)c4ccncc4n3)cc2)cc1 (stereo not drawn) [Example 100, 2-[4-[4-[1-(2-methoxyethylamino)propan-2-yl]-N-methylanilino]phenoxy]pyrido[3,4-d]pyrimidin-4-ol] | > 10000 nM | ≤ 100 nM
8 | COc1ccc(N(C)c2ccc(Oc3nc(O)c4ccncc4n3)cc2)cc1 [Example 16, 2-{4-[(4-Methoxy-phenyl)-methyl-amino]-phenoxy}-pyrido[3,4-d]pyrimidin-4-ol] | – | 100 to 1000 nM
9 | CN(C)c1cccc(N(C)c2ccc(Oc3nc(O)c4ccncc4n3)cc2)c1 [Example 47, 2-[4-[3-(dimethylamino)-N-methylanilino]phenoxy]pyrido[3,4-d]pyrimidin-4-ol] | 100 to 1000 nM | 100 to 1000 nM
10 | CN(CC1CCc2ccccc21)c1ccc(Oc2nc(O)c3ccncc3n2)cc1 (stereo not drawn) [Example 62, 2-[4-[2,3-dihydro-1H-inden-1-ylmethyl(methyl)amino]phenoxy]pyrido[3,4-d]pyrimidin-4-ol] | 1000 to 10000 nM | 100 to 1000 nM
11 | CC(C)c1ccc(N(CC(F)(F)F)c2ccc(Oc3nc(O)c4ccncc4n3)cc2)cc1 [Example 114, 2-{4-[(4-isopropyl-phenyl)-(2,2,2-trifluoro-ethyl)-amino]-phenoxy}-pyrido[3,4-d]pyrimidin-4-ol] | – | 100 to 1000 nM
12 | C[C@@H](c1ccccc1)N(C)c1ccc(Oc2nc(O)c3ccncc3n2)cc1 [Example 51, 2-[4-[methyl-[(1S)-1-phenylethyl]amino]phenoxy]pyrido[3,4-d]pyrimidin-4-ol] | 1000 to 10000 nM | 100 to 1000 nM
13 | CCc1ccc(N(C)c2ccc(Oc3nc(O)c4ccncc4n3)cc2)cc1OCCOC [Example 66, 2-[4-[4-ethyl-3-(2-methoxyethoxy)-N-methylanilino]phenoxy]pyrido[3,4-d]pyrimidin-4-ol] | 1000 to 10000 nM | 1000 to 10000 nM
14 | CN(c1ccc(C#N)cc1)c1ccc(Oc2nc(O)c3ccncc3n2)cc1 [Example 81, 4-[4-(4-hydroxypyrido[3,4-d]pyrimidin-2-yl)oxy-N-methylanilino]benzonitrile] | > 10000 nM | 100 to 1000 nM
15 | CN(Cc1ccccc1)c1cccc(Oc2nc(O)c3ccncc3n2)c1 [Example 9, 2-[3-(Benzyl-methyl-amino)-phenoxy]-pyrido[3,4-d]pyrimidin-4-ol] | – | 1000 to 10000 nM
16 | Oc1nc(Oc2ccc3cnn(Cc4ccccc4)c3c2)nc2cnccc12 [Example 11, 2-(1-Benzyl-1H-indazol-6-yloxy)-pyrido[3,4-d]pyrimidin-4-ol] | – | 100 to 1000 nM

Row | SMILES | IC50 [1] | IC50 [2]
17 | CC(C)c1ccc(N(C)c2ccc(Oc3nc(O)c4ccncc4n3)cc2)cc1N1CCOCC1 [Example 35, 2-{4-[(4-isopropyl-3-morpholin-4-yl-phenyl)-methyl-amino]-phenoxy}-pyrido[3,4-d]pyrimidin-4-ol] | – | 100 to 1000 nM
18 | CN(c1ccc(Oc2nc(O)c3ccncc3n2)cc1)c1ccc(N2CCOCC2)cc1 [Example 18, 2-{4-[Methyl-(4-morpholin-4-yl-phenyl)-amino]-phenoxy}-pyrido[3,4-d]pyrimidin-4-ol] | – | 100 to 1000 nM
19 | Cc1cccc(N(C)c2ccc(Oc3nc(O)c4ccncc4n3)cc2)c1 [Example 21, 2-[4-(Methyl-m-tolyl-amino)-phenoxy]-pyrido[3,4-d]pyrimidin-4-ol] | – | 100 to 1000 nM
20 | CC(C)c1cccc(N(C)c2ccc(Oc3nc(O)c4ccncc4n3)cc2)c1 [Example 93, 2-[4-(N-methyl-3-propan-2-ylanilino)phenoxy]pyrido[3,4-d]pyrimidin-4-ol] | – | 100 to 1000 nM
21 | CN(CC1CCCc2ccccc21)c1ccc(Oc2nc(O)c3ccncc3n2)cc1 (stereo not drawn) [Example 28, 2-{4-[methyl-(1,2,3,4-tetrahydro-naphthalen-1-ylmethyl)-amino]-phenoxy}-pyrido[3,4-d]pyrimidin-4-ol] | – | ≤ 100 nM
22 | Oc1nc(Oc2ccc3ccn(Cc4ccccc4)c3c2)nc2cnccc12 [Example 8, 2-(1-Benzyl-1H-indol-6-yloxy)-pyrido[3,4-d]pyrimidin-4-ol] | – | 1000 to 10000 nM
23 | Cc1ccc(N(C)c2ccc(Oc3nc(O)c4ccncc4n3)cc2)cc1 [Example 20, 2-[4-(Methyl-p-tolyl-amino)-phenoxy]-pyrido[3,4-d]pyrimidin-4-ol] | – | 100 to 1000 nM
24 | COc1cccc(N(C)c2ccc(Oc3nc(O)c4ccncc4n3)cc2)c1 [Example 17, 2-{4-[(3-Methoxy-phenyl)-methyl-amino]-phenoxy}-pyrido[3,4-d]pyrimidin-4-ol] | – | 100 to 1000 nM
25 | Oc1nc(Oc2ccc3c(c2)CCCN3c2ccccc2)nc2cnccc12 [Example 33, 2-(1-phenyl-1,2,3,4-tetrahydro-quinolin-6-yloxy)-pyrido[3,4-d]pyrimidin-4-ol] | – | 1000 to 10000 nM
26 | Oc1nc(Oc2ccc3c(ccn3C3CCCC3)c2)nc2cnccc12 [Example 31, 2-(1-cyclopentyl-1H-indol-5-yloxy)-pyrido[3,4-d]pyrimidin-4-ol] | – | 1000 to 10000 nM
27 | Oc1nc(Oc2ccc3nn(Cc4ccccc4)cc3c2)nc2cnccc12 [Example 14, 2-[2-Benzyl-2H-indazol-5-yloxy]pyridino[3,4-d]pyrimidin-4-ol] | – | 100 to 1000 nM
28 | CC(C)c1ccc(N(C)c2ccc(Oc3nc(O)c4ccncc4n3)cc2)nc1 [Example 34, 2-{4-[(5-isopropyl-pyridin-2-yl)-methyl-amino]-phenoxy}-pyrido[3,4-d]pyrimidin-4-ol] | – | ≤ 100 nM
29 | CN(c1ccccc1)c1ccc(Oc2nc(O)c3ccncc3n2)cc1F [Example 10, 2-[3-Fluoro-4-(methyl-phenyl-amino)-phenoxy]-pyrido[3,4-d]pyrimidin-4-ol] | – | 100 to 1000 nM
30 | CC(C)Cc1ccc(N(C)c2ccc(Oc3nc(O)c4ccncc4n3)cc2)cc1 [Example 63, 2-[4-[N-methyl-4-(2-methylpropyl)anilino]phenoxy]pyrido[3,4-d]pyrimidin-4-ol] | – | 100 to 1000 nM
31 | Oc1nc(Oc2ccc(N3CCCC(c4ccccc4)C3)cc2)nc2cnccc12 (stereo not drawn) [Example 25, 2-[4-(3-phenyl-piperidin-1-yl)-phenoxy]-pyrido[3,4-d]pyrimidin-4-ol] | – | 100 to 1000 nM
